# According to patent publication US20060251597A1, “ANTI-ODOR COMPOSITIONS AND THERAPEUTIC USE” (priority 2005, published 2006):
# Structures can show the parent of a compound that is named as a salt.
# Assay: panel sniff tests of solvents, ingredients and amines against thiol malodor (general statements)
# Details: solvent or ingredient, based on the panel tests
# Description: (§1) Initially, a malodor compound such as about 5% by weight was prepared in water solution or in oil-in-water emulsion. A sulfone or organic amine of the present embodiments was added at various concentrations for example, ranging from about 2%, 1%, 0.5% and 0.1% to the formulations containing the malodor substance. The composition containing the malodor substance without a sulfone or organic amine was used as the control.
row,Molecule,prevention of malodor produced by a thiol or similar malodor compounds
1,"CCCC(O)C(CC)CO (stereo not shown) [2-ethyl-1,3-hexanediol]",effectively prevent malodor
2,CCCOC(=O)[C@@H]1CCCN1C(C)=O [propyl N-acetyl-prolinate],effectively prevent malodor
3,CCCCCCCCOC(=O)CCCCC(=O)OCCCCCCCC [dioctyl adipate],effectively prevent malodor
4,CCCCCCCCO [octanol],effectively prevent malodor
5,CCCCCCCCCCCCCCCCCC [octadecane],effectively prevent malodor
6,CCCCOC(=O)CCCCC(=O)OCCCC [dibutyl adipate],effectively prevent malodor
7,CCCCCCCC/C=C\CCCCCCCCOC(=O)C(C)O (stereo not shown) [oleyl lactate],effectively prevent malodor
8,CC(C)COC(=O)CCCCC(=O)OCC(C)C [diisobutyl adipate],effectively prevent malodor
9,CCCCOCC(C)O (stereo not shown) [butoxypropanol],effectively prevent malodor
10,CCCCCCC(CO)CCCC (stereo not shown) [butyloctanol],effectively prevent malodor
11,CCCCCCCC/C=C\CCCCCCCCO [oleyl alcohol],effectively prevent malodor
12,cycloethoxymethicone,effectively prevent malodor
13,CCCCCCCCCCCCCC(=O)OC(C)C [isopropyl myristate],effectively prevent malodor
14,COCCOCCOC [dimethoxydiglycol],effectively prevent malodor
15,CC(C)OC(=O)C(=O)OC(C)C [diisopropyl oxalate],effectively prevent malodor
16,CCCCOC(=O)C(C)O (stereo not shown) [butyl lactate],effectively prevent malodor
17,CCCCCCCCOC(=O)c1ccccc1 [octyl benzoate],effectively prevent malodor
18,CCOC(=O)C(C)O (stereo not shown) [ethyl lactate],effectively prevent malodor

row,Molecule,prevention of malodor produced by a thiol or similar malodor compounds
1,CS(C)(=O)=O [dimethyl sulfone],effectively prevent malodor
2,CCCOC(=O)CCCCC(=O)OCCC [dipropyl adipate],effectively prevent malodor
3,CCCCOC(C)=O [butyl acetate],effectively prevent malodor
4,CCOCCO [ethoxyethanol],effectively prevent malodor
5,CC(C)OC(=O)CCCCCCCCC(=O)OC(C)C [diisopropyl sebacate],effectively prevent malodor
6,CC(=O)OC(C)C [isopropyl acetate],effectively prevent malodor
7,CC(C)OC(=O)CC(O)(CC(=O)OC(C)C)C(=O)OC(C)C [triisopropyl citrate],effectively prevent malodor
8,CC(C)CC(C)(C)C [isooctane],effectively prevent malodor
9,CCCCCCCCOC(=O)CCCCCCCCC(=O)OCCCCCCCC [dioctyl sebacate],effectively prevent malodor
10,CC(=O)N1CCC[C@H]1C(=O)OC(C)C [isopropyl N-acetyl-prolinate],effectively prevent malodor
11,CC(C)OC(=O)CCCCC(=O)OC(C)C [diisopropyl adipate],effectively prevent malodor
12,CCCCO [N-butyl alcohol],effectively prevent malodor
13,CCOC(=O)CC(C)=O [ethyl acetoacetate],effectively prevent malodor
14,CCCCOCCOCCO [butoxydiglycol],effectively prevent malodor
15,cyclomethicone,effectively prevent malodor
16,COC(=O)CCCCC(=O)OC [dimethyl adipate],effectively prevent malodor
17,C1CCCCC1 [cyclohexane],effectively prevent malodor

# Assay: anti-odor test, panel by sniffing: N-acetyl-L-cysteine dissolved in a single solvent or liquid ingredient (anhydrous composition)
# Details: 10% N-acetyl-L-cysteine and 90% solvent
# Description: An anti-odor test was carried out in an anhydrous solvent according to the following example. In a series of test tubes, 4.5 ml of a solvent was added to a test tube such that each test tube comprised a single solvent. The solvents added to the test tubes included water, ethanol, acetone, n-propanol, isopropyl alcohol, propylene glycol, butylenes glycol, benzyl alcohol, ethoxydiglycol, 2-ethyl-1,3-hexanediol. N-Acetyl-L-cysteine (MW 163) 0.5 g was then added and dissolved in each solvent. The test tubes were warmed slightly to enhance dissolution of N-acetyl-L-cysteine crystals. Each test tube contained 10% N-acetyl-L-cysteine and 90% solvent.
# An anti-odor test was carried out in an anhydrous composition according to the following example. In a series of test tubes, 4.5 ml of a liquid ingredient was added to a test tube such that each test tube comprised a single liquid ingredient. The liquid ingredients added to a test tube included ethyl glycolate, ethyl-L-lactate, diethyl tartrate, triethyl citrate, tripropyl citrate, ethyl-DL-mandelate, benzyl N-acetyl-prolinate, ethyl N-acetyl-prolinate, propyl N-acetyl-prolinate. N-Acetyl-L-cysteine (MW 163) 0.5 g was then added and dissolved in each liquid ingredient. The test tubes were warmed slightly to enhance dissolution of N-acetyl-L-cysteine crystals. Each test tube contained 10% N-acetyl-L-cysteine and 90% liquid ingredient. The panel judged the anti-odor effect in each test tube.
row,Molecule,"suppression of the malodor, judged by panel"
1,CC(O)CO (stereo not shown) [propylene glycol],did not suppress the malodor
2,CCO [ethanol],did not suppress the malodor
3,O [water],did not suppress the malodor

# Same assay, conditions: 10% N-acetyl-L-cysteine and 90% solvent or liquid ingredient
row,Molecule,anti-odor effect [%]
1,"CCCC(O)C(CC)CO (stereo not shown) [2-ethyl-1,3-hexanediol]",100
2,CCCOC(=O)[C@@H]1CCCN1C(C)=O [propyl N-acetyl-prolinate],100
3,CCOC(=O)[C@H](C)O [ethyl-L-lactate],100
4,CC(C)=O [acetone],100
5,OCc1ccccc1 [benzyl alcohol],100
6,CCOC(=O)C(O)c1ccccc1 (racemic) [ethyl-DL-mandelate],100

# Assay: anti-odor test, three-member panel by sniffing: sulfone or organic amine in composition containing water or alcohol (solution, oil-in-water emulsion)
# Details: not given
# Description: as §1
# Methenamine (MW 140) 7.0 g was dissolved in water, and the total volume was 100 ml. This solution contained methenamine 0.5M or 70 mg per ml methenamine.
# Piperazine (MW 86) 4.3 g was dissolved in water, and the total volume was 100 ml. This solution contained piperazine 0.5M, or 43 mg per ml piperazine.
row,Molecule,malodor as judged by panel
1,"O=S(=O)(CCO)CCO [2,2-sulfonyldiethanol]",did not have any malodor
2,"O=S(=O)(c1ccc(O)cc1)c1ccc(O)cc1 [4,4′-sulfonyldiphenol]",did not have any malodor

# Same assay, conditions: 10% N-acetyl-L-cysteine and 5% anti-odor ingredient in water
row,Molecule,malodor as judged by panel
1,O=S(=O)(c1ccccc1)c1ccccc1 [diphenylsulfone],did not have any malodor
2,CS(C)(=O)=O [dimethyl sulfone],did not have any malodor
3,"COC(=O)c1ccc(S(=O)(=O)c2ccc(C(=O)OC)cc2)cc1 [4,4′-sulfonyl-bis(methylbenzoate)]",did not have any malodor
4,"Cc1cc(S(=O)(=O)c2ccc(O)c(C)c2)ccc1O [4,4′-sulfonyl-bis(2-methylphenol)]",did not have any malodor
5,CCOC(=O)CC(C)=O [ethyl acetoacetate],did not have any malodor

# Same assay, conditions: 10% N-acetyl-L-cysteine and 10% dimethyl sulfone in ethanol
row,Molecule,malodor as judged by panel
1,CS(C)(=O)=O [dimethyl sulfone],very strong malodor

# Same assay, conditions: 10% N-acetyl-L-cysteine and 10% sulfone in water
row,Molecule,malodor as judged by panel
1,CS(C)(=O)=O [dimethyl sulfone],did not have any malodor

# Same assay, conditions: N-acetyl-L-cysteine 2% in oil-in-water emulsion
row,Molecule,concentration that can completely eliminate the malodor [%]
1,"C1N2CN3CN1CN(C2)C3 [methenamine, reference compound]",≥ 0.1

# Same assay, conditions: cream (oil-in-water emulsion), 10% N-acetyl-L-cysteine and 3% methenamine
row,Molecule,malodor as judged by panel
1,"C1N2CN3CN1CN(C2)C3 [methenamine, reference compound]",did not have any malodor

# Same assay, conditions: cream (oil-in-water emulsion), 10% N-acetyl-L-cysteine, no anti-odor ingredient (control)
row,Molecule,malodor as judged by panel
1,"CC(=O)N[C@@H](CS)C(=O)O [N-Acetyl-L-cysteine, reference compound]",very unpleasant malodor

# Same assay, conditions: water, 4% N-acetyl-L-cysteine and 1% organic amine (cytidine solution pH 4.3)
Molecule,effective in preventing malodor [%],malodor as judged by panel
Nc1ncnc2nc[nH]c12 [adenine],50,slight malodor ((b) slight malodor (50% effective))
Nc1cc[nH]c(=O)n1 [cytosine],50,slight malodor ((b) slight malodor (50% effective))
Nc1nc2c(ncn2[C@@H]2O[C@H](CO)[C@@H](O)[C@H]2O)c(=O)[nH]1 [guanosine],50,slight malodor ((b) slight malodor (50% effective))
Nc1nc2nc[nH]c2c(=O)[nH]1 [guanine],50,slight malodor ((b) slight malodor (50% effective))

# Same assay, conditions: water, N-acetyl-L-cysteine 0.25 M and chlorhexidine 0.1 M
Molecule,effective in preventing odor [%],malodor as judged by panel
"[H]/N=C(\N/C(=N/[H])NCCCCCCNC(=N)NC(=N)Nc1ccc(Cl)cc1)Nc1ccc(Cl)cc1 [chlorhexidine base, chlorhexidine, reference compound]",50,slight malodor ((b) slight malodor (50% effective))

# Same assay, conditions: water, N-acetyl-L-cysteine 4% and methenamine 0.7%, pH 3.9
row,Molecule,malodor as judged by panel
1,"C1N2CN3CN1CN(C2)C3 [methenamine, reference compound]",did not have any malodor

# Same assay, conditions: water, N-acetyl-L-cysteine 4% and methenamine 1.8%, pH 5.2
row,Molecule,malodor as judged by panel
1,"C1N2CN3CN1CN(C2)C3 [methenamine, reference compound]",did not have any malodor

# Same assay, conditions: water, N-acetyl-L-cysteine 4% and piperazine 0.43%, pH 3.4
Molecule,effective in preventing odor [%],malodor as judged by panel
"C1CNCCN1 [piperazine, reference compound]",50,slight malodor ((b) slight malodor (50% effective))

# Same assay, conditions: water, N-acetyl-L-cysteine 4% and piperazine 1.1%, pH 5.6
Molecule,effective in preventing odor [%],malodor as judged by panel
"C1CNCCN1 [piperazine, reference compound]",50,slight malodor ((b) slight malodor (50% effective))

# Same assay, conditions: water, N-acetyl-L-cysteine 4% and trizma base 0.61%, pH 3.0
Molecule,effective in preventing odor [%],malodor as judged by panel
tris(hydroxymethyl)aminomethane [trizma base],50,slight malodor ((b) slight malodor (50% effective))

# Same assay, conditions: water, N-acetyl-L-cysteine 4% and trizma base 1.5%, pH 3.5
Molecule,effective in preventing odor [%],malodor as judged by panel
tris(hydroxymethyl)aminomethane [trizma base],50,slight malodor ((b) slight malodor (50% effective))
